Measured values reported in EP0719267B1, “SECOND MESSENGER CELL SIGNALING INHIBITORS” (CELL THERAPEUTICS, INC., priority 1993, dated 1994).

Tests used:
[1] = test system: anti-CD3-stimulated mouse splenocytes; assay: Cytokine release from anti-CD3-stimulated splenocytes (ELISA); assay type: cell-based; conditions: 1 µM, overnight
Protocol: Figures 59A, 59B and 59C report assay results investigating the effect of inventive compound no. 45 on cytokine release from anti-CD3-stimulated mouse splenocytes. […] 45 (1 µM). Concentrations chosen were approximately equal to IC50 values. The supernatants were harvested and assayed for cytokine levels using commercial ELISAs for proliferation. Anti-CD3 stimulated release of IL-2, IFN-γ and IL-4 (background levels for media control were negligible). […] However, compound no. […] Compound no.

[2] = test system: murine cytotoxic T-cell line, CT6; assay: Cytokine-induced proliferation of the cytotoxic T-cell line CT6 / CT-6.1; assay type: cell-based; conditions: for IC50: Mus musculus, T-cell, CT-6.1 cells; for inhibition of direct IL-2-induced proliferation: added one hour prior to IL-2, thymidine at 48 hours
Protocol: Another assay in this example was used to determine inhibitive activity of the inventive compounds on direct IL-2-induced proliferation in a murine cytotoxic T-cell line, CT6. The CT6 cell line is an IL-2-dependent cell line. IL-2 was removed from the medium for 24 hours prior to stimulation. […] 49, 50, 45, 43 or 41 were added at various concentrations. The cells were stimulated with IL-2 and amount of tritiated thymidine dye incorporated was measured 48 hours later.
In another related assay, inhibitory effects on CT6 cell proliferation is examined. CT6 cells are a murine IL-2 dependent, cytotoxic T cell line that proliferate in response to murine IL-2 (15 U/ml).
CT-6.1 cells were starved overnight and stimulated with IL-2 (20 ng/ml). Twenty hours later, cells were labeled for 4 hours with ^3H-TdR and counted by liquid scintillation.
CT6.1 cells were cultured with IL-2 with or without the addition of inventive compound no. 45 (2 µM) and viable cells counted for up to 8 days. On day 4, two cultures previously incubated with compound no. 45, were washed and recultured with fresh IL-2 with or without compound no. 45 (2 µM).
Procedurally, CT-6.1 cells were starved overnight and stimulated with either IL-2 (20 ng/ml), IL-4 (50 ng/ml) or IL-7 (25 ng/ml). ^3H-TdR was added at 20 hours, cells were harvested 4 hours later, and the incorporation of ^3H-TdR was determined.

murine splenocytes = assay: Splenocytes stimulated with anti-CD3 and anti-CD28 antibodies: proliferation and cytokine release; assay type: cell-based
From the text: Figures 58A and 58B illustrate that inventive compound no. […] Murine splenocytes were stimulated with a mixture of anti-CD3 and anti-CD28 monoclonal antibodies. Inventive compound no.
Figures 58C and 58D illustrate that compound no. […] Procedurally, murine splenocytes were stimulated with a mixture of anti-CD3/CD28 antibodies. Inventive compound no. […] Addition of an anti-IL-2 receptor alpha subunit antibody and an anti-IL-2 receptor beta subunit antibody to the cultures inhibited both proliferation and the release of IFN-γ (figure 60D).

[3] = test system: human mixed leukocyte reaction (MLR); assay: Mixed leukocyte reaction (MLR), two HLA disparate individuals; assay type: cell-based; conditions: 144 h, 6 days co-culture
Protocol: Figures 50A and 50B illustrate that compound no. 45 inhibits a murine mixed tumor lymophocyte culture (MTLC) and a human mixed leukocyte reaction (MLR). In the MTLC, splenocytes were stimulated (co-culture) with an alloantigen, B cell tumor target cell line (2PK3) in the presence or absence of compound no. 45. Cells were stimulated for 3 days, ^3H-TdR was added and the cells were harvested 4 hours later. Incorporation of ^3H-TdR was determined by liquid scintillation. Background counts were 1000-1200 CPM. For the human MLR, purified peripheral lymphocytes from two HLA disparate individuals were co-cultured for 6 days with or without compound no. 45. On the 7th day the cultures were pulsed with ^3HTdR for 24 hours and counted by scintillation.

[4] = test system: human foreskin fibroblasts, HS68; assay: Prostaglandin E2 release from IL-1α-stimulated fibroblasts; assay type: cell-based; conditions: 100 pg/ml IL-1α, 24 hours
Protocol: Figure 61 illustrates that inventive compound no. […] Cells were stimulated with 100 pg/ml IL-1α. Inventive compound no. 45 was added 1 hour prior to stimulation. Supernatants were harvested 24 hours later and levels of PGE2 were analyzed by commercial immunoassay. The results are reported in figure 61 and confirm no effect on PGE2 release.

B16 melanoma cells = assay: B16 melanoma in vivo study: bone marrow toxicity; parameters: species or system mice; conditions: 10 mg/kg QD or 20 mg/kg QOC
Protocol: Figures 41A, 41B and 41C illustrates the results from an in vivo study in mice where B16 melanoma cells were injected intravenously through a tail vein on day 0 and compound no. 50 was administered inter parenterally at 10 mg/kg QD or 20 mg/kg QOC, starting days 1-14. The mice were sacrificed on day 15 and the lungs were dissected and fixed in formalin. In addition bone marrow toxicity was evaluated by measuring neutrophil and platelet counts in the mice on day 15.

Lewis Lung Carcinoma = Lewis Lung Carcinoma (3LL) in vivo experiment; parameters: species or system BDFI mice
Protocol: Figure 43 reports results in an in vivo experiment showing that inventive compound no. […] BDFI mice were injected subcutaneously with 1 x 10^6 3LL cells on day 0 and then treated with inventive compound no. (20 mg/kg i.p.), cyclophosphamide (20 mg/kg) or vehicle on alternate days beginning on day 7. The animals were sacrificed on day 20 and the lung tumors dissected and weighed. Figure 43 illustrates that compound no. […] Figure 44A and 44B illustrates platelet and neutrophil counts, respectively, of the sacrificed mice in the immediately preceding assay. […] 50.

[5] = test system: human umbilical vein endothelial cell line (HUVEC); assay: VEGF-induced proliferation of HUVEC; assay type: cell-based
Protocol: This example illustrates an investigation of inhibitory effects of compound no. 58 on Vascular Endothelial Growth Factor (VEGF)-induced proliferation in a human umbilical vein endothelial cell line (HUVEC). In this assay procedure, cells were grown in reduced serum (0.5% fetal calf serum) for 24 hours prior to stimulating with various concentrations of VEGF. […] Compound no.
As illustrated in figures 67A and 67B, inventive compound no. 58 inhibited VEGF-induced proliferation in HUVEC and EGF-induced proliferation in Swiss/3T3 cells, respectively. Procedurally, HUVEC were placed in 0.5% serum containing medium prior to stimulation with various concentrations of VEGF, with or without inventive compound no. 58 (5 µM). Twenty four hours later the cells were pulsed with ^3H-TdR and 4 hours later harvested and counted by scintillation. The IC50 for inhibition was approximately 50-100 nM. Swiss 3T3 cells were stimulated with 20 ng/ml EGF and 24 hours later harvested and counted by scintillation.

Balb/3T3 cells = assay: Cytotoxicity to PDGF-stimulated Balb/3T3 cells (BCECF); assay type: cell-based; conditions: fig. 66B
Protocol: LD50 values were determined using a cytotoxicity assay, as in Example 32. In these assays, Balb/3T3 cells, stimulated with PDGF and treated with one of the above inventive compounds in a manner identical to the tritiated thymidine procedure above, were incubated instead with a viable dye BCECF, a fluorescent dye. Fluorescence was measured using a fluorescent plate reader.

[6] = 20 mg/kg i.p. alternate days from day 7, day 20

CCCCCCCCNCC(O)CCCCCCCCCn1c(=O)c2c(ncn2C)n(C)c1=O (stereo not drawn) [compound no. 45]
IFN-γ release [1]: drastically inhibited IFN-γ release
IL-2 release [1]: did not significantly inhibit IL-2 release
IL-4 release [1]: only partially inhibits IL-4 release
proliferation measured by cell number ([2]; CT6.1 cells, IL-2, 2 µM, up to 8 days): inhibits proliferation as measured by cell number
reversibility of the effect ([2]; CT6.1 cells, washed on day 4): reversible even after 4 days in culture
IC50 ([2]; IL-2 (20 ng/ml), fig. 46): ~800 nM
IC50 ([2]; IL-2 (20 ng/ml), fig. 48): < 1000 nM
IC50 ([2]; IL-4 (50 ng/ml)): < 1000 nM
IC50 ([2]; IL-7 (25 ng/ml)): < 1000 nM
inhibition of direct IL-2-induced proliferation [2]: inhibited direct IL-2-induced CT6 proliferation
CD28-mediated release of IL-2 (murine splenocytes): did not inhibit the CD28-mediated release of IL-2
T cell proliferation (murine splenocytes): inhibited T cell proliferation in this system
release of IFN-γ (murine splenocytes): inhibited release of IFN-γ
IC50 [3]: ~500 nM
prostaglandin E2 release [4]: did not have an effect on prostaglandin E2 release

CCCCCCCCCCCCNCC(O)CCCCCCCCCn1c(=O)c2c(ncn2C)n(C)c1=O (stereo not drawn) [compound no. 50, 1-(11-Dodecylamino-10-hydroxyundecyl)-3,7-dmethylxanthine]
neutrophil and platelet counts (B16 melanoma cells; day 15): increased counts over non-treated control animals
bone marrow toxicity (B16 melanoma cells; days 1-14, day 15): not toxic to the bone marrow
lung tumor weight compared with cyclophosphamide (20 mg/kg) (Lewis Lung Carcinoma; [6]): superior results over an existing cancer chemotherapeutic agent
tumor growth (Lewis Lung Carcinoma; [6]): can arrest growth of Lewis Lung Carcinoma in mice
platelet and neutrophil counts (Lewis Lung Carcinoma; 20 mg/kg i.p., sacrificed mice): not altered from vehicle
inhibition of direct IL-2-induced proliferation [2]: inhibited direct IL-2-induced CT6 proliferation

COc1cc(CNCC(O)CCCCCCCCCn2c(=O)c3c(ncn3C)n(C)c2=O)cc(OC)c1OC (stereo not drawn) [compound no. 58, 1-[11-(3,4,5-Trimethoxybenzylamino)-10-hydroxyundecyl]-3,7-dimethylxanthine]
inhibition of VEGF-induced proliferation ([5]; 5 µM): inhibited VEGF-induced proliferation at all concentrations of VEGF tested
IC50 ([5]; Homo sapiens, HUVEC, VEGF, 0.5% serum): 50 to 100 nM
cytotoxicity (Balb/3T3 cells): not cytotoxic to Balb/3T3 cells
